Patent US9770478B2, “Method for inhibiting neuronal cell aggregation” (NATIONAL TAIWAN NORMAL UNIVERSITY, priority 2014, dated 2017)

Key:
HEK-293 cells = test: IC50 cytotoxicity (MTT cell proliferation) / effective dose ratio
Description: H.; Kung, P. J.; Lin, T. H.; Wu, Y. C.; Wu, Y. R.; Chen, Y. C.; Lee-Chen, G. J.; Chen, C. […] Cell proliferation was measured based upon the reduction of 3-(4,5-dimethylthiazol-2-yl]-2,5-diphenyltetrazolium bromide (MTT). Briefly, 5×10^4 cells were plated into 48-well dishes, grown for 20 hr and treated with herbal extract (5˜30 mg/mL G. inflata or C. longa) or pure compound (100 nM˜1 mM AMGZ or licochalcone A). After one day, 20 μL MTT (5 mg/mL in PBS, Sigma) was added to cells and incubated for 2 hr. The absorbance of the insoluble purple formazan product was measured at 570 nm by a Bio-Tek μQuant Universal Microplate Spectrophotometer.
Then doxycycline (10 μg/mL, BD) and oxaliplatin (5 μM, Sigma) were added for 6 days.

[1] = DPPH free radical scavenging assay; type: biochemical; settings: 100 μM DPPH; for EC50: 30 min, room temperature
Description: The free radical scavenging activities of tested compounds and herbal extracts were determined using the stable 1,1-diphenyl-2-picrylhydrazyl (DPPH, Sigma) free radical assay (see Li, N.; Liu, J. H.; Zhang, J.; Yu, B. Y. Comparative evaluation of cytotoxicity and antioxidative activity of 20 flavonoids. Journal of Agricultural and Food Chemistry 56:3876-3883; 2008) with some modifications. Briefly, radical scavenging activity was measured in an ethanol mixture containing 100 μM DPPH radical solution and tested compounds (10˜200 μM) or herbal extracts (0.2˜4 mg/mL) The mixture was vortexed for 15 sec and then left to stand at room temperature for 30 min. Then, the scavenging capacity was measured by monitoring the decrease in absorbance at 517 nm by a Thermo Scientific Multiskan GO Microplate Spectrophotometer. The radical scavenging activity was calculated using the formula: 1−(absorbance of sample/absorbance of control)×100%. The antioxidative activity expressed as EC50 was defined as the concentration of the compounds required for inhibition of the formation of DPPH radicals by 50%.

[2] = tested on: SH-SY5Y ATXN3/Q75-GFP cells; test: ATXN3/Q75 aggregation assay in retinoic acid differentiated neuronal cells; type: cell-based, human; settings: one week
Description: SH-SY5Y ATXN3/Q75-GFP cells were seeded in 6-well (2×10^5/well) plate, with all trans retinoic acid (10 μM, Sigma) added at seeding time. At day 2, cells were treated with G. inflata or C. longa extract (10 μg/mL), AMGZ (0.2 μM) or licochalcone A (2 nM) for 8 hr, and then doxycycline (5 μg/mL) was added to induce ATXN3/Q75-GFP expression. After one week, cells were stained with Hoechst 33342 and aggregation percentage was assessed as described. The morphologic differentiation of untreated cells including total outgrowth, processes, and branches was assessed by using HCA system.

293 ATXN3/Q75-GFP cells = test: ATXN3/Q75 aggregation assay, high-content analysis; type: cell-based, human
Description: Glycyrrhizin is metabolized to 18β-glycyrrhetinic acid by intestinal bacteria. Therefore, ATXN3/Q75 aggregation assay was further performed with different concentrations of the 18β-glycyrrhetinic acid (0.1˜10 μM) and SAHA (0.1 μM) by the aforementioned method, aggregation percentage was assessed by HCA system.

## C=CC(C)(C)c1cc(/C=C/C(=O)c2ccc(O)cc2)c(OC)cc1O [licochalcone A]
HEK-293 cells; human, 1 day
  IC50 cytotoxicity/effective dose ratio: 3×10^5
[1]
  EC50: 121 µM
[2]; 2 nM
  aggregation reduction in ATXN3/Q75 expressed neuronal cells: 10%

## O=c1c(O)c(-c2ccc(O)cc2)oc2cc(O)cc(O)c12 [Kaempferol, reference compound]
[1]
  EC50: 27 µM

## CC1(C)[C@@H](O[C@H]2O[C@H](C(=O)O)[C@@H](O)[C@H](O)[C@H]2O[C@@H]2O[C@H](C(=O)O)[C@@H](O)[C@H](O)[C@H]2O)CC[C@]2(C)[C@H]3C(=O)C=C4[C@@H]5C[C@@](C)(C(=O)O)CC[C@]5(C)CC[C@@]4(C)[C@]3(C)CC[C@@H]12 [AMGZ, ammonium glycyrrhizinate]
HEK-293 cells; effective = reduced the ATXN3/Q75 aggregation to 85% or lower
  IC50 cytotoxicity/effective dose ratio: > 10000
[1]; tested compounds 10˜200 μM
  DPPH scavenging activity: no detectable DPPH scavenging activity
[2]; 0.2 μM
  aggregation reduction in ATXN3/Q75 expressed neuronal cells: 9%

## O=C(CCCCCCC(=O)Nc1ccccc1)NO [SAHA, suberoylanilide hydroxamic acid, reference compound]
293 ATXN3/Q75-GFP cells; 100 nM, 8 hr pretreatment, then doxycycline and oxaliplatin 6 days
  ATXN3/Q75 aggregation as compared to untreated cells: 85%

## CC1(C)[C@@H](O)CC[C@]2(C)[C@H]3C(=O)C=C4[C@@H]5C[C@@](C)(C(=O)O)CC[C@]5(C)CC[C@@]4(C)[C@]3(C)CC[C@@H]12 [18β-glycyrrhetinic acid]
293 ATXN3/Q75-GFP cells; 10 μM
  ATXN3/Q75 aggregation as compared to untreated cells: 81%
